Biological target: human plasma kallikrein (Homo sapiens (Human), UniProt P03952)
Assay: Plasma Kallikrein Activity Assay (chromogenic substrate S2302)
Assay type: biochemical
Details: 2 nM kallikrein, 80 μM S2302, 30° C., pH 7.8; Cheng-Prusoff
In short: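 2 nM human plasma kallikrein incubated at 30° C with 80 μM S2302 and increasing compound concentrations in 50 mM Tris-HCl pH 7.8, 200 mM NaCl, 2.5 mM CaCl2. Activity read as absorbance change at 405 nm; four-parameter logistic fit, Ki by Cheng-Prusoff.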

human plasma kallikrein, sequence (P03952 391-638): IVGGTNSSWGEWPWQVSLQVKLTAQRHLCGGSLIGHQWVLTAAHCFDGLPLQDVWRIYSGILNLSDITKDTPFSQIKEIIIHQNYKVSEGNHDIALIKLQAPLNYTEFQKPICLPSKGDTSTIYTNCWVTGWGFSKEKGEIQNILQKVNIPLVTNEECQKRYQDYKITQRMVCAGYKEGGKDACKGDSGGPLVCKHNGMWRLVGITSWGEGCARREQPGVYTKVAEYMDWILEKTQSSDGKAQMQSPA
human plasma kallikrein, sequence (P03952 20-390 partner): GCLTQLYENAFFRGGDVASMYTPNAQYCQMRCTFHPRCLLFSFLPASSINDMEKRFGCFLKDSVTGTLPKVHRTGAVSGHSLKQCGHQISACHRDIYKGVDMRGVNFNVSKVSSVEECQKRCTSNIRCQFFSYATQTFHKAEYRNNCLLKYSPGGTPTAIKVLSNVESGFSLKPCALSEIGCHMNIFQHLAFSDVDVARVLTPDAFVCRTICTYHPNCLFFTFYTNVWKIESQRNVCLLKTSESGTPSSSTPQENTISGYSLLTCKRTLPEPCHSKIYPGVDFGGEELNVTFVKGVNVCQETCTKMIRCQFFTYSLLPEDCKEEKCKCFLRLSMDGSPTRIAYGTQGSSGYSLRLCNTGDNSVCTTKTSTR

First: C[C@H]1C[C@H](C(=O)Nc2cc(C(N)(CCC3CC3)c3ccncc3)ccc2F)N(C(=O)Nc2ccc(Cl)cn2)C1 (stereo partly drawn) [Compound 48d, (2R,4S)-N2-(5-((+)-1-amino-3-cyclopropyl-1-(pyridin-4-yl)propyl)-2-fluorophenyl)-N1-(5-chloropyridin-2-yl)-4-methylpyrrolidine-1,2-dicarboxamide]
Second: C[C@@H]1C[C@H](C(=O)Nc2cc(C(N)(CCC3CC3)c3ccncc3)ccc2F)N(C(=O)Nc2ccc(Cl)cn2)C1 (stereo partly drawn) [Compound 49d, (2R,4R)-N2-(5-((+)-1-amino-3-cyclopropyl-1-(pyridin-4-yl)propyl)-2-fluorophenyl)-N1-(5-chloropyridin-2-yl)-4-methylpyrrolidine-1,2-dicarboxamide]
The Ki of the first is lower: less than 0.05 µM for the first, 0.05 to 0.1 µM for the second.

`CCO[C@@H]1C[C@H](C(=O)Nc2cc(C(N)(CCC3CC3)c3ccncc3)ccc2F)N(C(=O)Nc2ccc(Cl)cn2)C1` (stereo partly drawn) [Compound 51b, (2R,4R)-N2-(5-((+)-1-amino-3-cyclopropyl-1-(pyridin-4-yl)propyl)-2-fluorophenyl)-N1-(5-chloropyridin-2-yl)-4-ethoxypyrrolidine-1,2-dicarboxamide] and `CCCO[C@@H]1C[C@H](C(=O)Nc2cc(C(N)(CCC3CC3)c3ccncc3)ccc2F)N(C(=O)Nc2ccc(Cl)cn2)C1` (stereo partly drawn) [Compound 52d, (2R,4R)-N2-(5-((+)-1-amino-3-cyclopropyl-1-(pyridin-4-yl)propyl)-2-fluorophenyl)-N1-(5-chloropyridin-2-yl)-4-propoxypyrrolidine-1,2-dicarboxamide] cannot be ordered by Ki: less than 0.05 µM for the first, less than 0.05 µM for the second.

`NC(CCC1CC1)(c1ccncc1)c1ccc(F)c(NC(=O)[C@H]2CC(F)(F)CN2C(=O)Nc2ccc(Cl)cn2)c1` (stereo partly drawn) [Compound 53d, (R)-N2-(5-((+)-1-amino-3-cyclopropyl-1-(pyridin-4-yl)propyl)-2-fluorophenyl)-N1-(5-chloropyridin-2-yl)-4,4-difluoropyrrolidine-1,2-dicarboxamide] and `NC(CCC1CC1)(c1ccncc1)c1ccc(F)c(NC(=O)[C@H]2C[C@](O)(C(F)(F)F)CN2C(=O)Nc2ccc(Cl)cn2)c1` (stereo partly drawn) [Compound 54g, (2R,4R)-N2-(5-(1-amino-3-cyclopropyl-1-(pyridin-4-yl)propyl)-2-fluorophenyl)-N1-(5-chloropyridin-2-yl)-4-hydroxy-4-(trifluoromethyl)pyrrolidine-1,2-dicarboxamide] cannot be ordered by Ki: less than 0.05 µM for the first, less than 0.05 µM for the second.

`CCO[C@@H]1C[C@H](C(=O)Nc2cc(C(CCC3CC3)(NS(C)(=O)=O)c3ccncc3)ccc2F)N(C(=O)Nc2ccc(Cl)cn2)C1` (stereo partly drawn) [Compound 55a, (2R,4R)-N1-(5-chloropyridin-2-yl)-N2-(5-((+)-3-cyclopropyl-1-(methylsulfonamido)-1-(pyridin-4-yl)propyl)-2-fluorophenyl)-4-ethoxypyrrolidine-1,2-dicarboxamide] and `CO[C@@H]1C[C@H](C(=O)Nc2cc(C(CCC3CC3)(NS(C)(=O)=O)c3ccncc3)ccc2F)N(C(=O)Nc2ccc(Cl)cn2)C1` (stereo partly drawn) [Compound 74a, (2R,4R)-N1-(5-chloropyridin-2-yl)-N2-(5-((+)-3-cyclopropyl-1-(methylsulfonamido)-1-(pyridin-4-yl)propyl)-2-fluorophenyl)-4-methoxypyrrolidine-1,2-dicarboxamide] cannot be ordered by Ki: less than 0.05 µM for the first, less than 0.05 µM for the second.

`CCO[C@@H]1C[C@H](C(=O)Nc2cc(C(CCC3CC3)(NC(C)=O)c3ccncc3)ccc2F)N(C(=O)Nc2ccc(Cl)cn2)C1` (stereo partly drawn) [Compound 56a, (2R,4R)-N2-(5-((+)-1-acetamido-3-cyclopropyl-1-(pyridin-4-yl)propyl)-2-fluorophenyl)-N1-(5-chloropyridin-2-yl)-4-ethoxypyrrolidine-1,2-dicarboxamide] and `CO[C@@H]1C[C@H](C(=O)Nc2cc(C(CCC3CC3)(NC(C)=O)c3ccncc3)ccc2F)N(C(=O)Nc2ccc(Cl)cn2)C1` (stereo partly drawn) [Compound 73a, (2R,4R)-N2-(5-((+)-1-acetamido-3-cyclopropyl-1-(pyridin-4-yl)propyl)-2-fluorophenyl)-N1-(5-chloropyridin-2-yl)-4-methoxypyrrolidine-1,2-dicarboxamide] cannot be ordered by Ki: less than 0.05 µM for the first, less than 0.05 µM for the second.

`CO[C@]1(C(F)(F)F)C[C@H](C(=O)Nc2cc(C(N)(CCC3CC3)c3ccncc3)ccc2F)N(C(=O)Nc2ccc(Cl)cn2)C1` (stereo partly drawn) [Compound 57d, (2R,4R)-N2-(5-((+)-1-amino-3-cyclopropyl-1-(pyridin-4-yl)propyl)-2-fluorophenyl)-N1-(5-chloropyridin-2-yl)-4-methoxy-4-(trifluoromethyl)pyrrolidine-1,2-dicarboxamide] and `CO[C@@H]1C[C@H](C(=O)Nc2cc(C(N)(CCC3CC3)c3ccncc3)ccc2F)N(C(=O)Nc2ccc(Cl)cn2)C1` (stereo partly drawn) [Compound 70c, (2R,4R)-N2-(5-((+)-1-amino-3-cyclopropyl-1-(pyridin-4-yl)propyl)-2-fluorophenyl)-N1-(5-chloropyridin-2-yl)-4-methoxypyrrolidine-1,2-dicarboxamide] cannot be ordered by Ki: less than 0.05 µM for the first, less than 0.05 µM for the second.

Compared with `CCO[C@@H]1C[C@H](C(=O)Nc2cc(C(NCC3CC3)c3cccc(C#N)c3)ccc2F)N(C(=O)Nc2ccc(Cl)cn2)C1` (stereo partly drawn) [Compound 58j, (2R,4R)-N1-(5-chloropyridin-2-yl)-N2-(5-((+)-(3-cyanophenyl)(cyclopropylmethylamino)methyl)-2-fluorophenyl)-4-ethoxypyrrolidine-1,2-dicarboxamide], `N#Cc1cccc([C@@H](NCC2CC2)c2ccc(F)c(NC(=O)[C@H]3C[C@@H](O)CN3C(=O)Nc3ccc(Cl)cc3)c2)c1` [Compound 60a, (2R,4R)-N1-(4-chlorophenyl)-N2-(5-((R)-(3-cyanophenyl)(cyclopropylmethylamino)methyl)-2-fluorophenyl)-4-hydroxypyrrolidine-1,2-dicarboxamide] is higher in Ki: less than 0.05 µM for the first, greater than 0.1 µM for the second. The first binds more tightly here.

`NC(CCC1CC1)(c1ccncc1)c1ccc(F)c(NC(=O)[C@H]2C[C@](O)(C3CC3)CN2C(=O)Nc2ccc(Cl)cn2)c1` (stereo partly drawn) [Compound 59d, (2R,4S)-N2-(5-((+)-1-amino-3-cyclopropyl-1-(pyridin-4-yl)propyl)-2-fluorophenyl)-N1-(5-chloropyridin-2-yl)-4-cyclopropyl-4-hydroxypyrrolidine-1,2-dicarboxamide] and `NC(CCC1CC1)(c1ccncc1)c1ccc(F)c(NC(=O)[C@H]2C[C@@H](O)CN2C(=O)Nc2ccc(Cl)cn2)c1` (stereo partly drawn) [Compound 72c, (2R,4R)-N2-(5-((+)-1-amino-3-cyclopropyl-1-(pyridin-4-yl)propyl)-2-fluorophenyl)-N1-(5-chloropyridin-2-yl)-4-hydroxypyrrolidine-1,2-dicarboxamide] cannot be ordered by Ki: less than 0.05 µM for the first, less than 0.05 µM for the second.

`NC(CCC1CC1)(c1ccc(F)c(NC(=O)[C@H]2C[C@@H](O)CN2C(=O)Nc2ccc(Cl)cn2)c1)c1ccccn1` (stereo partly drawn) [Compound 62c, (2R,4R)-N2-(5-((+)-1-amino-3-cyclopropyl-1-(pyridin-2-yl)propyl)-2-fluorophenyl)-N1-(5-chloropyridin-2-yl)-4-hydroxypyrrolidine-1,2-dicarboxamide] and `CO[C@@H]1C[C@H](C(=O)Nc2cc(C(N)(CCC3CC3)c3ccccn3)ccc2F)N(C(=O)Nc2ccc(Cl)cc2)C1` (stereo partly drawn) [Compound 65b, (2R,4R)-N2-(5-((+)-1-amino-3-cyclopropyl-1-(pyridin-2-yl)propyl)-2-fluorophenyl)-N1-(4-chlorophenyl)-4-methoxypyrrolidine-1,2-dicarboxamide] cannot be ordered by Ki: less than 0.05 µM for the first, less than 0.05 µM for the second.

Compared with `N#Cc1ccc(C(N)(CCC2CC2)c2ccc(F)c(NC(=O)[C@H]3C[C@@H](O)CN3C(=O)Nc3ccc(Cl)cc3)c2)cc1` (stereo partly drawn) [Compound 63g, (2R,4R)-N2-(5-((+)-1-amino-1-(4-cyanophenyl)-3-cyclopropylpropyl)-2-fluorophenyl)-N1-(4-chlorophenyl)-4-hydroxypyrrolidine-1,2-dicarboxamide], `NC(CCC1CC1)(c1ccncc1)c1ccc(F)c(NC(=O)[C@H]2C[C@@H](O)CN2C(=O)Nc2ccc(Cl)cc2)c1` (stereo partly drawn) [Compound 69a, (2R,4R)-N2-(5-((+)-1-amino-3-cyclopropyl-1-(pyridin-4-yl)propyl)-2-fluorophenyl)-N1-(4-chlorophenyl)-4-hydroxypyrrolidine-1,2-dicarboxamide] is lower in Ki: 0.05 to 0.1 µM for the first, less than 0.05 µM for the second.

`NC(CCC1CC1)(c1cccnc1)c1ccc(F)c(NC(=O)[C@H]2C[C@@H](O)CN2C(=O)Nc2ccc(Cl)cc2)c1` (stereo partly drawn) [Compound 64g, (2R,4R)-N2-(5-((+)-1-amino-3-cyclopropyl-1-(pyridin-3-yl)propyl)-2-fluorophenyl)-N1-(4-chlorophenyl)-4-hydroxypyrrolidine-1,2-dicarboxamide] and `CO[C@@H]1C[C@H](C(=O)Nc2cc(C(N)(CCC3CC3)c3ccncc3)ccc2F)N(C(=O)Nc2ccc(Cl)cc2)C1` (stereo partly drawn) [Compound 71a, (2R,4R)-N2-(5-((+)-1-amino-3-cyclopropyl-1-(pyridin-4-yl)propyl)-2-fluorophenyl)-N1-(4-chlorophenyl)-4-methoxypyrrolidine-1,2-dicarboxamide] cannot be ordered by Ki: less than 0.05 µM for the first, less than 0.05 µM for the second.

`CO[C@@H]1C[C@H](C(=O)Nc2cc(C(CCC3CC3)(N[S@+]([O-])C(C)(C)C)c3ccccc3)ccc2F)N(C(=O)Nc2ccc(Cl)cn2)C1` (stereo partly drawn) [Compound 66c, (2R,4R)-N1-(5-chloropyridin-2-yl)-N2-(5-((+)-3-cyclopropyl-1-((R)-1,1-dimethylethylsulfinamido)-1-phenylpropyl)-2-fluorophenyl)-4-methoxypyrrolidine-1,2-dicarboxamide] and `CCNC(CCC1CC1)(c1ccccc1)c1ccc(F)c(NC(=O)[C@H]2C[C@@H](OC)CN2C(=O)Nc2ccc(Cl)cn2)c1` (stereo partly drawn) [Compound 67b, (2R,4R)-N1-(5-chloropyridin-2-yl)-N2-(5-((+)-3-cyclopropyl-1-(ethylamino)-1-phenylpropyl)-2-fluorophenyl)-4-methoxypyrrolidine-1,2-dicarboxamide] cannot be ordered by Ki: greater than 0.1 µM for the first, greater than 0.1 µM for the second.

In the case of `CC(C)(C)[S@@+]([O-])NC(CCC1CC1)(c1ccncc1)c1ccc(F)c(NC(=O)[C@H]2C[C@@H](O)CN2C(=O)Nc2ccc(Cl)cc2)c1` (stereo partly drawn) [Compound 68a, (2R,4R)-N1-(4-chlorophenyl)-N2-(5-(3-cyclopropyl-1-((R)-1,1-dimethylethylsulfinamido)-1-(pyridin-4-yl)propyl)-2-fluorophenyl)-4-hydroxypyrrolidine-1,2-dicarboxamide], the Ki is reported as less than 0.05 µM.

— patent publication US10562850B2, “Human plasma kallikrein inhibitors” (priority 2015, dated 2020)
